According to patent publication US10045980B2, “Inhibitor of p38 map kinase” (RESPIVERT LTD, priority 2014, dated 2018):

Legend:
[1] = biological target: T1, p38MAPKγ (MAPK12) (Homo sapiens, UniProt P53778); experiment: p38 MAPKγ enzyme inhibition (Z-LYTE FRET); format: biochemical
T1 construct: purchased Life Technologies
T1 sequence (P53778 1-367): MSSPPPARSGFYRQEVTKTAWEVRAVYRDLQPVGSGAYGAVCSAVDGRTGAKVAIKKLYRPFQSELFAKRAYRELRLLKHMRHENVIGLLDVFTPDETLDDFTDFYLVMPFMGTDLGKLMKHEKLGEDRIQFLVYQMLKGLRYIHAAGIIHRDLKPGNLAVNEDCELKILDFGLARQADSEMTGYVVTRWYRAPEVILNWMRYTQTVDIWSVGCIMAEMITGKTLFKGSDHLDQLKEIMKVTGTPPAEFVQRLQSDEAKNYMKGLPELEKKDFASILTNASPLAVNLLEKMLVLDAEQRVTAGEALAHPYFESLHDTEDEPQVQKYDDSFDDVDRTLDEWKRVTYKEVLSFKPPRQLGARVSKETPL
Description: (§1) The enzyme inhibitory activities of the compound disclosed herein were determined by FRET using synthetic peptides labelled with both donor and acceptor fluorophores (Z-LYTE, Life Technologies, Paisley, UK).
The enzyme (800 ng/mL, 2.5 μL) was incubated with the test compound (2.5 μL at either 40 μg/mL, 12 μg/mL, 4 μg/mL, 1.2 μg/mL, 0.4 μg/mL, 0.12 μg/mL, 0.04 μg/mL, 0.012 μg/mL, 0.004 μg/mL or 0.0012 μg/mL) for 2 h at RT. The FRET peptides (8 μM, 2.5 μL), and appropriate ATP solution (2.5 μL, 400 μM) were then added to the enzymes/compound mixtures and incubated for 1 h at RT. Development reagent (protease, 5 μL) was added for 1 h prior to detection in a fluorescence microplate reader (EnVision, Perkin Elmer).
(§2) In all cases, the site-specific protease cleaves non-phosphorylated peptide only and eliminates the FRET signal. Phosphorylation levels of each reaction were calculated using the ratio of coumarin emission (donor) over fluorescein emission (acceptor), for which low ratios indicate high phosphorylation and high ratios indicate low phosphorylation levels.

[2] = biological target: T2, Hck (Homo sapiens, UniProt P08631); experiment: Hck enzyme inhibition (Z-LYTE FRET); format: biochemical
T2 construct: purchased Life Technologies
T2 sequence (P08631 22-526): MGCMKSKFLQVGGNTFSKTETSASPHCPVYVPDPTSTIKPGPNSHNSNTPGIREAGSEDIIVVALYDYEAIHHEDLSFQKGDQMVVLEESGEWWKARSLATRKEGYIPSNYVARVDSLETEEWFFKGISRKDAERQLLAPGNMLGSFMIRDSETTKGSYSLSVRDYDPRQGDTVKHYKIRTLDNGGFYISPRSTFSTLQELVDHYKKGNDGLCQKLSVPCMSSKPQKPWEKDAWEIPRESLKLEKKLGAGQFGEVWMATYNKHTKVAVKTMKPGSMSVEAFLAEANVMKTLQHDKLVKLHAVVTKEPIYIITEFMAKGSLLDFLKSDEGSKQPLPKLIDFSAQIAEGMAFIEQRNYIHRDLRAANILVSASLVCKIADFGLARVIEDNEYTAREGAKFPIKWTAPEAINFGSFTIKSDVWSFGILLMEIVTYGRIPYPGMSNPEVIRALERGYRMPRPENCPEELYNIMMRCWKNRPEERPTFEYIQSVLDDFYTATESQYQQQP
Description: as §1
(§3) The relevant enzyme (1000 ng/mL, 1400 ng/mL or 2000 ng/mL respectively, 2.5 μL) was incubated with the test compound (either 40 μg/mL, 12 μg/mL, 4 μg/mL, 1.2 μg/mL, 0.4 μg/mL, 0.12 μg/mL, 0.04 μg/mL, 0.012 μg/mL, 0.004 μg/mL or 0.0012 μg/mL, 2.5 μL each) for 2 h at RT. The FRET peptides (8 μM, 2.5 μL), and appropriate ATP solutions (2.5 μL, 800 μM for c-Src, and 60 μM ATP for HCK and Syk) were then added to the enzyme/compound mixtures and incubated for 1 h at RT. Development reagent (protease, 5 μL) was added for 1 h prior to detection in a fluorescence microplate reader (EnVision, Perkin Elmer).
as §2

[3] = biological target: T3, c-Src (Homo sapiens, UniProt P12931); experiment: c-Src enzyme inhibition (Z-LYTE FRET); format: biochemical
T3 construct: purchased Life Technologies
T3 sequence (P12931 whole entry): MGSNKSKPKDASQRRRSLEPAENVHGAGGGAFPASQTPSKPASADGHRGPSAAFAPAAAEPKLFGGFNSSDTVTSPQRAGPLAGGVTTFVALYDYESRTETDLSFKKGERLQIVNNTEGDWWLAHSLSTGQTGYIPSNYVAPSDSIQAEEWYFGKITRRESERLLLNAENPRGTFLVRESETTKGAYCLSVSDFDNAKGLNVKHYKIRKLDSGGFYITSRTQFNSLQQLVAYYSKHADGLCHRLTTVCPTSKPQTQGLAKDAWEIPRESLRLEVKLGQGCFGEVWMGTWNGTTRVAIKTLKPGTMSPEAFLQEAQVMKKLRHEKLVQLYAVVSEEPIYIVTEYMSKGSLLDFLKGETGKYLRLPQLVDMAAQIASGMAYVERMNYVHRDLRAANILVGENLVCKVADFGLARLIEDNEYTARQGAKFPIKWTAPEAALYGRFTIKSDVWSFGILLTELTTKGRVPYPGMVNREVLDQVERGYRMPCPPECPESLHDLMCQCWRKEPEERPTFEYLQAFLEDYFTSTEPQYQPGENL
Description: as §1, §3, §2

[4] = biological target: T4, Syk (Homo sapiens, UniProt P43405); experiment: Syk enzyme inhibition (Z-LYTE FRET); format: biochemical
T4 construct: purchased Life Technologies
Description: as §1, §3, §2

[5] = tested on: PBMCs; experiment: Cell mitosis assay; format: cell-based; settings: Homo sapiens, PBMC; At 5 ug/mL; PHA-treated PBMCs, 20 h exposure; Mean ± SEM
Description: Peripheral blood mononucleocytes (PBMCs) from healthy subjects were separated from whole blood (Quintiles, London, UK) using a density gradient (Histopaque-1077, Sigma-Aldrich, Poole, UK). The PBMCs (3 million cells per sample) were subsequently treated with 2% PHA (Sigma-Aldrich, Poole, UK) for 48 h, followed by a 20 h exposure to varying concentrations of test compounds. At 2 h before collection, PBMCs were treated with demecolcine (0.1 μg/mL; Life Technologies, Paisley, UK,) to arrest cells in metaphase.

[6] = tested on: sputum macrophages from COPD patients; experiment: Cytokine production in LPS-treated sputum macrophages from COPD patients; format: cell-based; settings: Homo sapiens, Macrophage; at 0.1 μg/mL; LPS 1 μg/mL, 18 h; read-out: Percent Inhibition IL-6
Description: Patients with COPD inhaled a nebulised solution of 3% (w/v) hypertonic saline using an ultrasonic nebuliser (Devilbiss, Carthage, Mo.) with tidal breathing for 5 min. This procedure was repeated a maximum of three times until enough sputum was obtained. The sputum samples were homogenized and mixed vigorously using a vortex mixer in 0.02% v/v dithiothreitol (DTT) solution. The samples were re-suspended in PBS (40 mL) followed by centrifugation at 1500 rpm at 4° C. for 10 min to obtain sputum cell pellets. The pellets were washed with PBS (40 mL). […]
Where appropriate, 1 μL of a solution containing either the test compound or reference article at the stated concentrations (either 0.1 μg/mL, 0.01 μg/mL, or 0.001 μg/mL) or alternatively 1 μL of DMSO as the vehicle control was added to each well (200 μL in media) and the cells were incubated for 2 h. […] After washing with 200 μL wash buffer per well, the beads were resuspended in sheath fluid (150 μL) and analyzed immediately. The level of each analyte in the supernatant was calculated using Xcel Fit software with a 4 or 5-parameter equation using each standard curve. The inhibitions of each cytokine production were calculated at each concentration by comparison with vehicle control.

CCc1cncc(Nc2cc(COc3ccc(NC(=O)Nc4cc(C(C)(C)C)nn4-c4ccc(C)cc4)c4ccccc34)ccn2)n1 [Compound of the invention, 1-(3-(tert-butyl)-1-(p-tolyl)-1H-pyrazol-5-yl)-3-(4-((2-((6-ethylpyrazin-2-yl)amino)pyridin-4-yl)methoxy)naphthalen-1-yl)urea]
IC50 [1]: 152 nM
IC50 [2]: 55 nM
IC50 [3]: 199 nM
IC50 [4]: > 16000 nM
inhibition at 5 µg/mL [5]: 18 ± 7%
inhibition at 0.1 µg/mL [6]: 48 ± 9%
